pIC50: −log10 of the molar value. *1 amine or outer side, *2 acyl side, *3 side chain or, on linkers, in order; H or OH if unused. Where a SMILES comes first, the peptide text is derived from it. [ ]: non-standard residue; d: D form. The star is where a group is joined. X1 = CC(C)C[C@H](C[C@H](O)[C@H](CC1CCCCC1)N[*:1])C(=O)[*:2]; Boc = CC(C)(C)OC(=O)*
Legend:
Rattus norvegicus [1] = species: Rattus norvegicus; test: Infusion rate producing half of the maximal decrease in renin dependent blood pressure in rats; format: functional
Renin [2] = target: T1, Renin (Homo sapiens, UniProt P00797); test: Compound was tested for its inhibitory activity against human plasma renin; format: cell-free
T1 sequence (P00797 whole entry): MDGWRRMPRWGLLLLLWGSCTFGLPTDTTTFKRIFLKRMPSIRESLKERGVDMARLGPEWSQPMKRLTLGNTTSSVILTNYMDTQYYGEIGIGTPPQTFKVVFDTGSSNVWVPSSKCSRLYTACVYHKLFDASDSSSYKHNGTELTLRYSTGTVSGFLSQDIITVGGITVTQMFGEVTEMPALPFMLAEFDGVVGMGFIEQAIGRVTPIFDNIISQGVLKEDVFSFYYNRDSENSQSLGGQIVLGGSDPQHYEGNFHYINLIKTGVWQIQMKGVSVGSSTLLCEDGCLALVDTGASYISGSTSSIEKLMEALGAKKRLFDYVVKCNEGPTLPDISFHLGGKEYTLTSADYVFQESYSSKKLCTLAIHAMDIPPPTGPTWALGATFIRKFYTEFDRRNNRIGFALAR

Rattus norvegicus [3] = species: Rattus norvegicus; test: Infusion rate producing a decrease in MAP of between 30 and 40 mmHg in the rat; format: functional
Canis familiaris [4] = species: Canis familiaris; test: Infusion rate producing half of the maximal decrease in renin dependent blood pressure in dogs; format: functional, Canis lupus familiaris
Canis familiaris [5] = test: Decrease in mean arterial pressure in anesthetized, sodium depleted dogs, at 3.7+/0.4 ug/Kg/min infusion rate; format: functional, Canis lupus familiaris, Artery
Renin (Canis familiaris) = test: Compound was tested for its inhibitory activity against dog plasma renin
Renin [6] = target: T2, Renin (Rattus norvegicus, UniProt P08424); test: Compound was tested for its inhibitory activity against Rat plasma renin; format: cell-free
T2 sequence (P08424 whole entry): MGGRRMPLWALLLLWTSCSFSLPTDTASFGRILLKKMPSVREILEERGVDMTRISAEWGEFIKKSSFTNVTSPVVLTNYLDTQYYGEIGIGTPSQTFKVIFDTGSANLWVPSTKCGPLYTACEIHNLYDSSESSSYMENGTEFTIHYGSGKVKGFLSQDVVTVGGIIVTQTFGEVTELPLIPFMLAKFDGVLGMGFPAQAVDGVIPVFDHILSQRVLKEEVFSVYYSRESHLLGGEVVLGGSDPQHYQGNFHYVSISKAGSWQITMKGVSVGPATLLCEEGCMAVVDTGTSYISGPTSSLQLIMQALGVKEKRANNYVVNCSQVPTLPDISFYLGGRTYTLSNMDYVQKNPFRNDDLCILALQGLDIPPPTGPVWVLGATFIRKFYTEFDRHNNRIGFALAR

## CC(=O)O.CC(C)C[C@H](C[C@H](O)[C@H](CC1CCCCC1)NC(=O)[C@H](Cc1c[nH]cn1)NC(=O)[C@H](Cc1ccccc1)NC(=O)OC(C)(C)C)C(=O)N[C@@H](CCCCN)C(=O)N[C@@H](Cc1ccccc1)C(=O)O (Boc-FH[X1]KF-OH)
Rattus norvegicus [1]
  Infusion rate: 9.7 µg/min/kg
Renin [2]
  pIC50: 7.70
Rattus norvegicus [3]
  Infusion rate: 30 µg/min/kg
Canis familiaris [4]
  Infusion rate: 1.1 µg/min/kg
Canis familiaris [5]
  MAP: 35 mmHg
Renin (Canis familiaris)
  pIC50: 10.52
Renin [6]
  pIC50: 8.52

From ChEMBL document CHEMBL1150545, “CP-71,362, an unusually potent inhibitor of rat and dog renin” (Bioorg Med Chem Lett, 1994)
